TGI data for 18 compounds are collected here from PubChem BioAssay (NCI).

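1) Cells in 96-well plates. 2) Compound, 48 h, 5 concentrations. 3) Linear interpolation between surrounding doses. 4) Unreached endpoint = highest concentration. TGI: total growth inhibition.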

Test systems include UACC-62 melanoma; A498 renal; SK-OV-3 ovarian; SK-MEL-28 melanoma; RPMI-8226 leukemia; COLO 205 colon; CAKI-1 renal; MDA-MB-231 breast; UO-31 renal; PC-3 prostate; A549 NSCLC.
Assay in all cases: NCI-60 cell line screen, 48 h

As to `Cc1cc(NS(=O)(=O)c2ccc(Nc3c4ccccc4nc4c(C(=O)NCCO)cccc34)cc2)no1`, the TGI in the assay with UACC-62 melanoma is over 100 µM; in the assay on A498 renal it was over 100 µM; in the assay with SK-OV-3 ovarian it was over 100 µM; with SK-MEL-28 melanoma it was over 100 µM; in the assay with RPMI-8226 leukemia it was 79.3 µM; with COLO 205 colon, over 100 µM. For the same compound, the TGI in the assay on CAKI-1 renal was 88.2 µM; with MDA-MB-231 breast it was over 100 µM; in the assay on UO-31 renal it was 99.7 µM; with PC-3 prostate, over 100 µM; in the assay on A549 NSCLC it was over 100 µM.

On to `O=[N+]([O-])C(C(Cl)=C(Cl)Cl)=C(n1cncn1)n1cncn1`, for which the TGI in the assay on UACC-62 melanoma was over 100 µM; in the assay with A498 renal, over 100 µM; in the assay with SK-OV-3 ovarian it was over 100 µM; in the assay on SK-MEL-28 melanoma, over 95.9 µM; in the assay with RPMI-8226 leukemia, 51.5 µM; in the assay on COLO 205 colon it was 26.7 µM. Besides, the TGI with CAKI-1 renal was 11.4 µM; with MDA-MB-231 breast it was 39.3 µM; with UO-31 renal, 34.9 µM; with PC-3 prostate it was over 100 µM; with A549 NSCLC it was over 100 µM.

On to `Cc1ccc(C(=O)N/N=C2/C(=O)c3c4ccccc4cc4cccc2c34)cc1`, for which the TGI is over 93.1 µM in the assay on UACC-62 melanoma; over 100 µM in the assay on A498 renal; over 75.9 µM in the assay with SK-OV-3 ovarian; 97.4 µM in the assay on SK-MEL-28 melanoma; over 87.1 µM with RPMI-8226 leukemia; over 100 µM in the assay with COLO 205 colon. The TGI was over 81 µM in the assay on CAKI-1 renal; over 100 µM with MDA-MB-231 breast; over 100 µM in the assay with UO-31 renal; over 100 µM in the assay on PC-3 prostate; over 100 µM in the assay on A549 NSCLC.

As for `O=C(C1OC1c1cccc([N+](=O)[O-])c1)C12CC3CC(CC(C3)C1)C2` (stereo not drawn), the TGI was 14.1 µM in the assay on UACC-62 melanoma; 14.2 µM in the assay with A498 renal; 31.6 µM in the assay with SK-OV-3 ovarian; 25.6 µM in the assay on SK-MEL-28 melanoma; 6.18 µM in the assay on RPMI-8226 leukemia; 23.4 µM in the assay with COLO 205 colon. Further, the TGI in the assay on CAKI-1 renal was determined as 24.5 µM; with MDA-MB-231 breast, 17.5 µM; with UO-31 renal, 21 µM; in the assay with PC-3 prostate, 16.1 µM; with A549 NSCLC it was 26.6 µM.

Turning to `CC(C)=C[C@@H]1O[C@H](O)[C@@H]([C@H]2CC[C@@]3(C)[C@@H]4CC[C@H]5C(C)(C)C(=O)CC[C@@]56C[C@@]46CC[C@]23C)[C@@H]1O`, the TGI with UACC-62 melanoma turned out to be 35.5 µM; in the assay on A498 renal it was 32.8 µM; with SK-OV-3 ovarian it was 34.6 µM; with SK-MEL-28 melanoma, 42.5 µM; in the assay with RPMI-8226 leukemia, 12.7 µM; in the assay with COLO 205 colon, 43.3 µM. Besides, the TGI with CAKI-1 renal came out at 31 µM; with MDA-MB-231 breast, 37.1 µM; in the assay on UO-31 renal, 28.6 µM; in the assay on PC-3 prostate, 29.3 µM; in the assay on A549 NSCLC, 28.7 µM.

Turning to `O=C(NC1(C(=O)O)CCCC1)c1ccccc1`, the TGI in the assay with UACC-62 melanoma, with A498 renal, in the assay with SK-OV-3 ovarian, in the assay with SK-MEL-28 melanoma, in the assay on RPMI-8226 leukemia and with COLO 205 colon was over 100 µM throughout. For the same compound, the TGI with CAKI-1 renal, in the assay on MDA-MB-231 breast, in the assay on UO-31 renal, in the assay on PC-3 prostate and with A549 NSCLC was over 100 µM each time.

In the case of `Cc1cc(C)nc(NS(=O)(=O)c2ccc(NC(=O)c3cc([N+](=O)[O-])cc([N+](=O)[O-])c3)cc2)n1`, the TGI with UACC-62 melanoma was over 100 µM; in the assay on A498 renal it was over 100 µM; with SK-OV-3 ovarian, over 100 µM; in the assay on SK-MEL-28 melanoma it was over 100 µM; with RPMI-8226 leukemia it was over 100 µM; in the assay with COLO 205 colon, 45.7 µM. The TGI with CAKI-1 renal, with MDA-MB-231 breast, with UO-31 renal, in the assay on PC-3 prostate and in the assay on A549 NSCLC was over 100 µM each time.

`N#Cc1c(-c2ccccc2)cc(Nc2ccc(Cl)cc2)n2c1nc1ccccc12`: the TGI in the assay on UACC-62 melanoma is over 100 µM; with A498 renal, over 100 µM; in the assay on SK-OV-3 ovarian it was over 30.4 µM; with SK-MEL-28 melanoma, over 100 µM; with RPMI-8226 leukemia, over 63.3 µM; with COLO 205 colon it was 2.8 µM. Moreover, the TGI was over 30.7 µM in the assay with CAKI-1 renal; over 47.4 µM in the assay on MDA-MB-231 breast; over 100 µM with UO-31 renal; over 48 µM in the assay with PC-3 prostate; over 40.1 µM in the assay with A549 NSCLC.

With `COc1ccc(CCN2C(=O)CC34C=CC(CC3C2=O)O4)cc1OC` (stereo not drawn), the TGI in the assay on UACC-62 melanoma, in the assay with A498 renal, in the assay on SK-OV-3 ovarian, with SK-MEL-28 melanoma, in the assay with RPMI-8226 leukemia and with COLO 205 colon was over 100 µM each time. In addition, the TGI in the assay on CAKI-1 renal, in the assay with MDA-MB-231 breast, in the assay with UO-31 renal, in the assay with PC-3 prostate and in the assay on A549 NSCLC was over 100 µM each time.

Turning to `CN(C)N=Nc1ccc2[nH]c(=O)[nH]c2c1`, the TGI in the assay with UACC-62 melanoma, in the assay on A498 renal, in the assay on SK-OV-3 ovarian, in the assay with SK-MEL-28 melanoma, in the assay with RPMI-8226 leukemia and in the assay on COLO 205 colon was over 100 µM in each case. Further, the TGI in the assay with CAKI-1 renal, with MDA-MB-231 breast, in the assay on UO-31 renal, in the assay with PC-3 prostate and in the assay on A549 NSCLC was over 100 µM each time.

`O=c1c2c3c(sc2nc2n1N=CN(c1ccc(F)cc1)C2)CCCC3`: the TGI in the assay on UACC-62 melanoma, in the assay on A498 renal, with SK-OV-3 ovarian, in the assay on SK-MEL-28 melanoma, in the assay with RPMI-8226 leukemia and with COLO 205 colon was over 100 µM in each case. Further, the TGI in the assay on CAKI-1 renal, in the assay on MDA-MB-231 breast, with UO-31 renal, in the assay with PC-3 prostate and in the assay on A549 NSCLC was over 100 µM throughout.

With `C=C(C)C(=O)OC1C[C@H](COC(C)=O)C2CC=C(CO)C2C2OC(=O)C(=C)[C@H]12` (stereo partly drawn), the TGI in the assay on UACC-62 melanoma is over 100 µM; with A498 renal, over 100 µM; in the assay on SK-OV-3 ovarian, over 100 µM; with SK-MEL-28 melanoma, over 100 µM; with RPMI-8226 leukemia it was over 100 µM; in the assay on COLO 205 colon it was 30 µM. Also, the TGI in the assay on CAKI-1 renal, with MDA-MB-231 breast, with UO-31 renal, in the assay with PC-3 prostate and in the assay with A549 NSCLC was over 100 µM in each case.

Turning to `C=CCn1c(-c2ccc(Cl)cc2)csc1=Nc1ccccc1OC`, the TGI in the assay on UACC-62 melanoma was over 94 µM; with A498 renal it was over 100 µM; in the assay on SK-OV-3 ovarian it was over 100 µM; in the assay on SK-MEL-28 melanoma, over 100 µM; in the assay on RPMI-8226 leukemia it was over 100 µM; in the assay with COLO 205 colon, over 100 µM. Also, the TGI in the assay on CAKI-1 renal, with MDA-MB-231 breast, in the assay on UO-31 renal, in the assay on PC-3 prostate and with A549 NSCLC was over 100 µM in each case.

In the case of `CC1(C)OC2OC(COC(=O)c3ccc(C#N)cc3)C3OC(C)(C)OC3C2O1` (stereo not drawn), the TGI in the assay on UACC-62 melanoma, in the assay on A498 renal, in the assay on SK-OV-3 ovarian, in the assay on SK-MEL-28 melanoma, with RPMI-8226 leukemia and in the assay on COLO 205 colon was over 75 µM in each case. In addition, the TGI in the assay with CAKI-1 renal, with MDA-MB-231 breast, with UO-31 renal, in the assay with PC-3 prostate and in the assay on A549 NSCLC was over 75 µM in each case.

Turning to `CCNC(=S)NNC(=O)CSc1nc2ccc(I)cc2c(=O)n1Cc1ccccc1`, the TGI in the assay with UACC-62 melanoma is over 100 µM; in the assay with A498 renal, over 78.2 µM; with SK-OV-3 ovarian it was over 100 µM; in the assay on SK-MEL-28 melanoma, over 100 µM; in the assay on RPMI-8226 leukemia, over 100 µM; in the assay on COLO 205 colon it was over 100 µM. Besides, the TGI in the assay with CAKI-1 renal is 1.65 µM; in the assay with MDA-MB-231 breast, over 100 µM; in the assay on UO-31 renal, 0.136 µM; in the assay on PC-3 prostate, over 100 µM; in the assay with A549 NSCLC, over 100 µM.

In the case of `CCN(CC)CCN1C(=O)C(=O)N(c2cccc3ccccc23)C1=O`, the TGI with UACC-62 melanoma, with A498 renal, with SK-OV-3 ovarian, with SK-MEL-28 melanoma, in the assay on RPMI-8226 leukemia and in the assay with COLO 205 colon was over 10 µM each time. The TGI with CAKI-1 renal, with MDA-MB-231 breast, with UO-31 renal, with PC-3 prostate and in the assay with A549 NSCLC was over 10 µM each time.

As to `COc1ccc(/C=C/C(=O)Oc2ccccc2OC)cc1`, the TGI with UACC-62 melanoma was 97.9 µM; in the assay with A498 renal it was over 100 µM; in the assay with SK-OV-3 ovarian, over 100 µM; in the assay with SK-MEL-28 melanoma, over 100 µM; with RPMI-8226 leukemia it was 5.22 µM; in the assay with COLO 205 colon, 21.2 µM. The TGI in the assay on CAKI-1 renal is over 91.1 µM; with MDA-MB-231 breast, 18 µM; with UO-31 renal, over 100 µM; in the assay with PC-3 prostate, over 100 µM; in the assay on A549 NSCLC, over 100 µM.

As to `CCOc1cc(-c2nc3cc(F)ccc3s2)ccc1O`, the TGI with UACC-62 melanoma was found to be 31.6 µM; with A498 renal, 26.2 µM; in the assay on SK-OV-3 ovarian, 33 µM; in the assay on SK-MEL-28 melanoma it was 43.1 µM; in the assay with RPMI-8226 leukemia, 29.6 µM; in the assay on COLO 205 colon it was 34.6 µM. For the same compound, the TGI with CAKI-1 renal came out at 32.2 µM; in the assay with MDA-MB-231 breast it was 48.4 µM; in the assay with UO-31 renal, 25.8 µM; in the assay with PC-3 prostate, 28.7 µM; in the assay with A549 NSCLC it was 37 µM.
